Reference: patent US5726311A, “7-disubstituted-methyl-4-oxo-3H,5H-pyrrolo[3,2-d]pyrimidine and pharmaceutical uses and compositions containing the same” (BioCryst Pharmaceuticals, Inc., priority 1995, dated 1998)

Biological target: T1, purine nucleoside phosphorylase (PNP) (Bos taurus, UniProt P55859)
T1 sequence (P55859 1-289): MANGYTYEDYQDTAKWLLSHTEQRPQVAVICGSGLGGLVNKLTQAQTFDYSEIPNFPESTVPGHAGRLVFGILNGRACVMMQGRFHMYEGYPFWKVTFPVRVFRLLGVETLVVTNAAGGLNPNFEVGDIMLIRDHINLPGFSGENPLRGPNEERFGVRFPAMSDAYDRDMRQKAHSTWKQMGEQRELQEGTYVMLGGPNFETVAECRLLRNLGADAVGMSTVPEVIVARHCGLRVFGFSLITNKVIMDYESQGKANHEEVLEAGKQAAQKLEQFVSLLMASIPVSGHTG
Assay: Purine nucleoside phosphorylase (PNP) radiochemical enzyme assay, [14C]-hypoxanthine formation from [14C]-inosine

[1] = IC50 (PNP inhibition), 1 mM phosphate, calf spleen PNP
[2] = IC50 (PNP inhibition), 50 mM phosphate, calf spleen PNP
[3] = IC50 (nM), table of Examples 36-42, phosphate concentration not printed in table (Ex. 37 and 38 values agree with 1 mM phosphate in text)

Row | SMILES | IC50 [1] | IC50 [2] | IC50 [3] | enzyme inhibition activity (IC50), in words (phosphate concentration not stated)
1 | Nc1nc(O)c2[nH]cc(C(CC(=O)O)c3ccccc3)c2n1 (stereo not shown) [Example 15, 3-(2-amino-4-oxo-3H,5H-pyrrolo[3,2-d]pyrimidin-7-yl)-3-phenylpropanoic acid] | 12 nM | 190 nM |  | 
2 | N#CCC(c1cc(Cl)cc(Cl)c1Cl)c1c[nH]c2c(=O)[nH]c(N)nc12 (stereo not shown) [Example 8A] | 640 nM | 10000 nM |  | 
3 | Nc1nc(O)c2[nH]c(N)c(Cc3cccs3)c2n1 [2,6-diamino-3,5-dihydro-7-(2-thienylmethyl)-4H-pyrollo-[3,2-d]pyrimidine-4-one, reference compound] |  |  | 160 nM | 
4 | COC(=O)CC(c1ccccc1)c1c[nH]c2c(=O)[nH]c(N)nc12 (stereo not shown) [Example 19, 3-(2-amino-4-oxo-3H,5H-pyrrolo[3,2-d]pyrimidin-7-yl)-3-phenylpropanoic acid, methyl ester] |  |  |  | Significant activity
5 | N#CCC(c1cccc(Cl)c1)c1c[nH]c2c(=O)[nH]cnc12 (stereo not shown) [Example 40] |  |  | 10 nM | 
